Values after ≈ are worked out from the molar mass of the structure shown.
What was measured:
[1] = Microsomal stability in mouse liver microsomes assessed as intrinsic clearance preincubated for 5 mins followed by NADPH addition measured upto 60 mins by LC-MS/MS analysis; format: ADME, Microsome; conditions: time < 65 min, read-out: CLH
[2] = Cytotoxicity against african green monkey Vero cells by ATPlite cell viability luminescence assay; format: toxicity, cell-based; conditions: chlorocebus sabaeus
[3] = Microsomal stability in rat liver microsomes assessed as intrinsic clearance preincubated for 5 mins followed by NADPH addition measured upto 60 mins by LC-MS/MS analysis; format: ADME, Microsome; conditions: time < 65 min, read-out: CLH
[4] = system: dengue virus type 1; experiment: Antiviral activity against DENV-1 TC974#666 infected in african green monkey Vero cells incubated for 24 hrs measured after 3 days post infection; format: functional, organism-based; conditions: TC974#666, Vero
[5] = Clearance in Sprague-Dawley rat at 2.5 mg/kg, iv measured upto 24 hrs by LC-MS/MS analysis; format: ADME, organism-based; conditions: in vivo
[6] = system: dengue virus type 2; experiment: Antiviral activity against DENV-2 16681 expressing eGFP infected in african green monkey Vero cells incubated with cells for 24 hrs followed by viral infection measured after 3 days by laser microscopic analysis; format: functional, organism-based
[7] = system: dengue virus type 3; experiment: Antiviral activity against DENV-3 H87 infected in african green monkey Vero cells incubated for 24 hrs measured after 3 days post infection; format: functional, organism-based
[8] = Clearance in CD-1 mouse at 2.5 mg/kg, iv measured for 0.12 to 24 hrs by LC-MS/MS analysis; format: ADME, organism-based; conditions: in vivo, time 0.12-24 hrs
[9] = Microsomal stability in human liver microsomes assessed as intrinsic clearance preincubated for 5 mins followed by NADPH addition measured upto 60 mins by LC-MS/MS analysis; format: ADME, Microsome; conditions: time < 65 min, read-out: CLH
[10] = system: dengue virus type 2; experiment: Antiviral activity against DENV-2 16681 infected in african green monkey Vero cells incubated for 24 hrs measured after 3 days post infection; format: functional, organism-based; conditions: Dengue virus, 16681, Vero
[11] = system: dengue virus type 4; experiment: Antiviral activity against DENV-4 H241 infected in african green monkey Vero cells incubated for 24 hrs measured after 3 days post infection; format: functional, organism-based; conditions: Dengue virus, H241, Vero
[12] = Kinetic solubility of the compound in aqueous buffer at pH 4 measured after 4 hrs by UPLC/UV analysis; format: physicochemical; conditions: read-out: Kinetic_solubility
[13] = Volume of distribution at steady state in Sprague-Dawley rat at 2.5 mg/kg, iv measured upto 24 hrs by LC-MS/MS analysis; format: ADME, organism-based; conditions: in vivo, read-out: Vdss
[14] = AUC last in Sprague-Dawley rat at 10 mg/kg, po measured upto 24 to 48 hrs by LC-MS/MS analysis; format: ADME, organism-based; set-up: time upper 48 hrs, dose 10 mg/kg, time lower 24 hrs, route po; conditions: in vivo
[15] = Cmax in Sprague-Dawley rat at 10 mg/kg, po measured upto 24 to 48 hrs by LC-MS/MS analysis; format: ADME, organism-based; set-up: time upper 48 hrs, dose 10 mg/kg, time lower 24 hrs, route po; conditions: in vivo
[16] = Kinetic solubility of the compound in aqueous buffer at pH 7.4 measured after 4 hrs by UPLC/UV analysis; format: physicochemical; conditions: read-out: Kinetic_solubility
[17] = Oral bioavailability in Sprague-Dawley rat at 10 mg/kg measured upto 24 to 48 hrs by LC-MS/MS analysis; format: ADME, organism-based; conditions: in vivo, time 24-48 hrs
[18] = Half life in Sprague-Dawley rat at 2.5 mg/kg, iv measured by LC-MS/MS analysis; format: ADME, organism-based; conditions: in vivo
[19] = Kinetic solubility of the compound in aqueous buffer at pH 2 measured after 4 hrs by UPLC/UV analysis; format: physicochemical; conditions: read-out: Kinetic_solubility
[20] = system: dengue virus type 2; experiment: In vivo antiviral activity against DENV-2/RL infected in AG129 mouse assessed as viral load reduction administered at 3 to 30 mg/kg, po bid for 3 days; format: functional, organism-based; conditions: dose 3-30 mg/kg, time 3.0 day

microsomal CLint [1] [µL/min/mg] | microsomal CLint [3] [µL/min/mg] | EC50 ([6]; Dengue virus, 16681, Vero) [µM] | microsomal CLint [9] [µL/min/mg] | SMILES | CC50 [2] [µM] | also measured
201 | 37 | 0.049 | < 8 | COc1cc(NC(C(=O)c2c[nH]c3ccccc23)c2ccccc2)cc(OCCO)c1 (centres undefined) | 21 | EC50 [4]: 0.18 µM; clearance [5]: 34.7 mL/min/kg; EC50 [7]: 1 µM; clearance [8]: 54 mL/min/kg; EC50 [10]: 0.032 µM; EC50 [11]: 3.9 µM
50 | 10 | 0.016 | < 8 | COc1cc(NC(C(=O)c2c[nH]c3ccc(F)cc23)c2ccc(F)cc2)cc(OCCO)c1 (centres undefined) | 14 | 
26 | 30 | 0.004 | < 8 | COc1cc(NC(C(=O)c2c[nH]c3cc(F)ccc23)c2ccc(F)cc2OC)cc(OCCO)c1 (centres undefined) | 8.4 | solubility kinetic at 4 h [12]: 18 µM (≈ 8.68 µg/mL); Vd [13]: 7.6 L/kg; AUC(0-t) [14]: 1110 ng·h/mL; clearance [5]: 39.2 mL/min/kg; Cmax [15]: 135 ng/mL; solubility kinetic at 4 h [16]: 18 µM (≈ 8.68 µg/mL); bioavailability [17]: 26%; half-life [18]: 3.2 h; solubility kinetic at 4 h [19]: 69 µM (≈ 33.3 µg/mL); EC50 [10]: 0.009 µM; EC50 [11]: 0.87 µM
< 8 | 24 | 0.002 | < 8 | COc1cc(NC(C(=O)c2c[nH]c3cc(Cl)ccc23)c2ccc(F)cc2OC)cc(OCCO)c1 (centres undefined) | 5.9 | 
 |  |  |  | COc1cc(NC(C(=O)c2c[nH]c3cc(F)ccc23)c2ccc(C)cc2OC)cc(OCCO)c1 (centres undefined) |  | EC50 [10]: 0.007 µM; EC50 [11]: 0.96 µM
 |  | 0.17 |  | COc1cc(NC(C(=O)c2c[nH]c3cc(F)ccc23)c2ccc(F)cc2OC(F)(F)F)cc(OCCO)c1 (centres undefined) | 7.8 | 
 |  |  |  | COc1cc(NC(C(=O)c2c[nH]c3cc(F)ccc23)c2ccc(C(F)(F)F)cc2OC)cc(OCCO)c1 (centres undefined) |  | EC50 [10]: 0.003 µM; EC50 [11]: 0.77 µM
9 | 37 | 0.001 | < 8 | COc1cc(NC(C(=O)c2c[nH]c3c(Cl)c(OC)ccc23)c2ccc(F)cc2OC)cc(OCCO)c1 (centres undefined) | 8.6 | 
8 | 8 | 0.003 | < 8 | COc1cc(NC(C(=O)c2c[nH]c3c(F)c(F)ccc23)c2ccc(F)cc2OC)cc(OCCO)c1 (centres undefined) | 6.6 | 
 |  | 0.041 |  | COc1cc(NC(C(=O)c2c[nH]c3cc(F)ccc23)c2ccc(F)cc2OCCO)cc(OCCO)c1 (centres undefined) | 14 | 
 |  | 0.009 |  | COc1cc(NC(C(=O)c2c[nH]c3cc(F)ccc23)c2ccc(F)cc2F)cc(OCCO)c1 (centres undefined) | 13 | 
 |  |  |  | COc1cc(NC(C(=O)c2c[nH]c3cc(F)ccc23)c2ccc(OC(F)(F)F)cc2OC)cc(OCCO)c1 (centres undefined) |  | EC50 [10]: 0.022 µM; EC50 [11]: 3.43 µM
10 | 44 | 0.003 | < 8 | COc1cc(NC(C(=O)c2c[nH]c3cc(F)c(F)cc23)c2ccc(F)cc2OC)cc(OCCO)c1 (single isomer, unassigned; (+)) | 6.9 | 
 |  |  |  | COc1cc(NC(C(=O)c2c[nH]c3cc(F)ccc23)c2ccc(F)cc2)cc(OCCO)c1 (single isomer, unassigned; (+)) |  | EC50 ([6]; vero): 0.011 µM
< 8 | < 8 | 0.003 | < 8 | COc1cc(NC(C(=O)c2c[nH]c3cc(OC)c(C)cc23)c2ccc(F)cc2OC)cc(OCCO)c1 (single isomer, unassigned; (+)) | 7.4 | solubility kinetic at 4 h [12]: 5 µM (≈ 2.54 µg/mL); Vd [13]: 6.5 L/kg; AUC(0-t) [14]: 4660 ng·h/mL; clearance [5]: 13.6 mL/min/kg; Cmax [15]: 350 ng/mL; solubility kinetic at 4 h [16]: 5 µM (≈ 2.54 µg/mL); bioavailability [17]: 40%; half-life [18]: 5.7 h; solubility kinetic at 4 h [19]: 65 µM (≈ 33.1 µg/mL)
10 | 13 | 0.005 | 10 | COc1cc(NC(C(=O)c2c[nH]c3c(F)cc(C)cc23)c2ccc(F)cc2OC)cc(OCCO)c1 (single isomer, unassigned; (+)) | 5.5 | 
< 8 | < 8 | 0.002 | < 8 | COc1cc(NC(C(=O)c2c[nH]c3c(C)c(F)ccc23)c2ccc(F)cc2OC)cc(OCCO)c1 (single isomer, unassigned; (+)) | 5.3 | solubility kinetic at 4 h [12]: 3 µM (≈ 1.49 µg/mL); Vd [13]: 8.5 L/kg; AUC(0-t) [14]: 8290 ng·h/mL; clearance [5]: 16.4 mL/min/kg; Cmax [15]: 573 ng/mL; solubility kinetic at 4 h [16]: 2 µM (≈ 0.993 µg/mL); bioavailability [17]: 88%; half-life [18]: 6.5 h; solubility kinetic at 4 h [19]: 34 µM (≈ 16.9 µg/mL)
< 8 | < 8 | 0.005 | < 8 | COc1cc(NC(C(=O)c2c[nH]c3cc(OC)c(F)cc23)c2ccc(F)cc2OC)cc(OCCO)c1 (single isomer, unassigned; (+)) | > 8.6 | 
< 8 | < 8 | 0.001 | < 8 | COc1cc(NC(C(=O)c2c[nH]c3c(C)c(Cl)ccc23)c2ccc(F)cc2OC)cc(OCCO)c1 (single isomer, unassigned; (+)) | 4.1 | solubility kinetic at 4 h [12]: < 0.1 µM; Vd [13]: 6.5 L/kg; AUC(0-t) [14]: 7600 ng·h/mL; clearance [5]: 10.7 mL/min/kg; Cmax [15]: 294 ng/mL; solubility kinetic at 4 h [16]: < 0.1 µM; bioavailability [17]: 54%; half-life [18]: 7 h; solubility kinetic at 4 h [19]: 5 µM (≈ 2.56 µg/mL)
< 8 | 17 | 0.001 | < 8 | COc1cc(NC(C(=O)c2c[nH]c3c(C)c(OC)ccc23)c2ccc(F)cc2OC)cc(OCCO)c1 (single isomer, unassigned; (+)) | 8.9 | 
 |  |  |  | COc1cc(NC(C(=O)c2c[nH]c3cc(F)ccc23)c2ccc(Cl)cc2OC)cc(OCCO)c1 (single isomer, unassigned; (+)) |  | Activity [20]: Dose-Dependent Effect
 |  | 0.006 |  | COc1cc(NC(C(=O)c2c[nH]c3cc(F)ccc23)c2ccc(F)cc2Cl)cc(OCCO)c1 (single isomer, unassigned; (-)) | 8.2 | 
26 | < 8 |  | < 8 | COc1cc(NC(C(=O)c2c[nH]c3cc(F)ccc23)c2ccc(F)cc2)cc(OCCO)c1 (stereo in doubt) | 13 | Vd [13]: 7.3 L/kg; AUC(0-t) [14]: 4370 ng·h/mL; EC50 [4]: 0.049 µM; clearance [5]: 13.9 mL/min/kg; Cmax [15]: 295 ng/mL; bioavailability [17]: 40%; EC50 ([6]; vero): 0.015 µM; EC50 [7]: 0.42 µM; half-life [18]: 6 h; clearance [8]: 37.1 mL/min/kg; EC50 [10]: 0.012 µM; EC50 [11]: 0.87 µM
 |  |  |  | COc1cc(NC(C(=O)c2c[nH]c3cc(F)ccc23)c2ccc(Cl)cc2OC)cc(OCCO)c1 (stereo in doubt; 24) |  | EC50 [10]: 0.001 µM; EC50 [11]: 0.36 µM
 |  |  |  | COc1cc(NC(C(=O)c2c[nH]c3cc(F)ccc23)c2ccc(F)cc2)cc(OCCO)c1 (stereo in doubt; (-)-7b) |  | EC50 ([6]; vero): 0.093 µM

Source: ChEMBL document CHEMBL5331131, “Discovery of Acyl-Indole Derivatives as Pan-Serotype Dengue Virus NS4B Inhibitors” (J Med Chem, 2023)
